Laboratory results: article PMC5598135 (Toxicology Reports, 2014)

Target: mTOR kinase (Homo sapiens, UniProt P42345)
Experiment: cell-free ELISA kinase assay
Type: biochemical

O=C1NC(c2cccc3ncccc23)Nc2ccccc21 (stereo not shown) [DQQ, 2,3-dihydro-2-(quinoline-5-yl) quinazolin-4(1H)-one]
IC50: 6 nM
